Results reported in US20160206577A1, “NOVEL DRUG FORMULATION” (FAB PHARMA SAS, priority 2013, published 2016).

Assays:
[1] = test system: methicillin-susceptible Staphylococcus aureus (MSSA); assay: Systemic mouse infection model against MSSA; assay type: in vivo; settings: CD-1 mice, combined n=3 studies
Description: (§1) The aim of this study was to compare the in vivo efficacy of the prior art historical formulation with a novel nanosuspension of the present invention using a murine systemic infection model against both a susceptible (MSSA) and a methicillin resistant (MRSA) strains of S. aureus.
(§2) Three independent studies were run against each isolate (one MSSA and one MRSA), the data for the three studies combined and analysis performed. Bacterial isolates were grown to log phase in a liquid culture. Bacteria were diluted in 8% mucin to a concentration to achieve at least 90% mortality within 48 hours after infection. Six CD-1 female mice, 18-20 grams, were allocated per compound (I) concentration and were infected with 0.5 ml of bacterial suspension via intraperitoneal injection. Five minutes post-infection, mice were treated via intravenous administration. A nanosuspension of the invention (prepared according to Example 3) was prepared fresh just prior to single IV dose delivery at 50, 100 and 200 mg/kg (dosage of compound (I)). The prior art historical formulation of compound (I) (formulated at 10 mg/mL in 20% HPBCD, and 1% glucose) and vancomycin (Sigma Aldrich) were also administered IV at one dose and were used as comparators. Infection control mice were dosed with saline. Survival was assessed for 48 hours post infection. Date of death was recorded and a Probit analysis was performed to determine the PD50 (50% protective dose).

[2] = test system: methicillin-resistant Staphylococcus aureus (MRSA 300); assay: Systemic mouse infection model against MRSA; assay type: in vivo; settings: CD-1 mice, combined n=3 studies
Description: as §1, §2

[3] = commercial intravenous formulations; cited from earlier work
[4] = Particle size of suspensions made with concentrated aqueous PVP (solvent evaporation attempts); assay type: physicochemical; settings: low molecular weight PVP (3,500 Da), concentrated aqueous polymer solution
Description: Alternative solvent evaporation systems such as oil-in-oil and water-in-oil systems were investigated, however large particle sizes were still observed. In an attempt to reduce solvent dissolution into the continuous phase of the oil-in-water system, the aqueous phase was saturated with different salts to reduce solvent solubility. However, little benefit was achieved through the use of the saturated salt systems, as large crystals were still observed. It was thought that the use of a concentrated aqueous polymer solution would disrupt or prevent crystal formation. Multiple molecular weights and concentrations of PVP were studied. […] In the expectation of further reducing the particle size (to <1 μm i.e. to nanoparticulate form) further surfactants were added. However, by contrast, the addition of further surfactants to the solution yielded large size growth of particles.

[5] = cited from earlier work
[6] = test system: Staphylococcus aureus MSSA, MRSA, VISA and VRSA strains; settings: pathogenic MSSA; cited from earlier work
[7] = test system: MSSA and MRSA infections; settings: murine model; cited from earlier work
[8] = single IV dose 50 mg/kg, 48 h post infection
[9] = single IV dose, Probit analysis

SMILES: CN[C@H](CC(C)C)C(=O)N[C@H]1C(=O)N[C@@H](CC(N)=O)C(=O)N[C@H]2C(=O)N[C@H]3C(=O)N[C@H](C(=O)N[C@H](C(=O)O)c4cc(O)cc(O)c4-c4cc3ccc4O)[C@H](O)c3ccc(c(Cl)c3)Oc3cc2cc(c3O[C@@H]2O[C@H](CO)[C@@H](O)[C@H](O)[C@H]2O[C@H]2C[C@](C)(N)[C@H](O)[C@H](C)O2)Oc2ccc(cc2Cl)[C@H]1O [Vancomycin, vancomycin]
- % survival [1, 8]: 100%
- Survival [1, 8]: 18/18
- PD50 (50% protective dose) [1, 9]: <50 mg/kg
- % survival [2, 8]: 100%
- Survival [2, 8]: 18/18
- PD50 (95% C.I.) [2, 9]: <50 mg/kg

SMILES: CC(O)COC[C@H]1O[C@@H]2O[C@H]3[C@H](O)[C@@H](O)[C@@H](O[C@H]4[C@H](O)[C@@H](O)[C@@H](O[C@H]5[C@H](O)[C@@H](O)[C@@H](O[C@H]6[C@H](O)[C@@H](O)[C@@H](O[C@H]7[C@H](O)[C@@H](O)[C@@H](O[C@H]8[C@H](O)[C@@H](O)[C@@H](O[C@H]1[C@H](O)[C@H]2O)O[C@@H]8COCC(C)O)O[C@@H]7COCC(C)O)O[C@@H]6COCC(C)O)O[C@@H]5COCC(C)O)O[C@@H]4COCC(C)O)O[C@@H]3COCC(C)O (stereo partly drawn) [HPBCD, hydroxypropyl-beta-cyclodextrin]
- Maximum reported safe daily dose [3]: 16 g/day

SMILES: CCc1cc(O)c(Oc2ccc(C(N)=O)cc2F)cc1F [compound (I), 4-(4-ethyl-5-fluoro-2-hydroxyphenoxy)-3-fluorobenzamide]
- Particle size of suspension [4]: 4.4 μm
- Water-solubility [5]: relatively poor
- Concentration at which compound (I) may be formulated ([5]; prior art historical formulation (water, glucose monohydrate, HPBCD)): up to 11.3 mg/mL
- In vitro activity [6]: highly active
- In vivo activity [7]: active in vivo
